Test results published in BindingDB's records for doi:10.1016/s0960-894x(03)00584-5 (Schering-Plough Research Institute, 2003).

Target: Hepatitis C virus NS3 protease (Hepatitis C virus)
Assay: Inhibitory activity evaluated in the HCV protease binding assay

Work on `O=C1OC[C@H]2O[C@@H](Oc3cc(O)c4c(c3)OC(c3ccccc3)CC4=O)[C@H](O)[C@@H](O)[C@@H]2OC(=O)c2cc(O)c(O)c(O)c2-c2c1cc(O)c(O)c2O` (stereo partly specified) [2,3,4,5,6,7,14,15-octahydroxy-13-(5-hydroxy-4-oxo-2-phenyl-3,4-dihydro-2H-7-chromenyloxy)-9,11,11a,13,14,15,15a,17-octahydrodibenzo[g,i]pyrano[3,2-b][1,5]dioxacycloundecine-9,17-dione] yielded an IC50 of 2.8 µM.
